The values that follow come from ChEMBL document CHEMBL1201862, “PubChem BioAssay data set” (2004).

What all share (assay): growth of human tumour cells (NCI), 48 h
The subject of assay [1] is HOP-92.
Assay [2] concerns HL-60.
For assay [3], the system named is HCC 2998.
In assay [4] the test system is SF-539.
Assay [5] relates to UO-31.
Assay [6] relates to SNB-19.
Assay [7] deals with COLO 205.
Assay [8] has as its system K562.
Assay [9] has as its system OVCAR-8.
The subject of assay [10] is Malme-3M.
For assay [11], the system named is UACC-62.
For assay [12], the system named is RPMI-8226.
Assay [13] relates to SK-MEL-28.
Assay [14] deals with HOP-62.
Assay [15] deals with SNB-75.
For assay [16], the system named is HT-29.
Assay [17] has as its system UACC-257.
In assay [18] the test system is OVCAR-5.
In assay [19] the test system is OVCAR-3.

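Results reflect a 48-hour exposure of cells in 96-well plates to compound at five concentrations. Here, GI50 denotes the concentration required for 50% inhibition of growth.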 Active and inactive are the calls of the source. No stated cut-off is given here; in the data, active = GI50 up to about 1.1 µM and inactive = higher. Where only a bound is given, the exact number is not on record here.

As to `O=C1N(C2CCCCC2)CC12CCCCC2`, the GI50 is > 100 µM (inactive) in assay [1]; 41.2 µM (inactive) in assay [2]; > 100 µM (inactive) in [3]; > 100 µM (inactive) in [4]; > 100 µM (inactive) in assay [5]; > 100 µM (inactive) in assay [6]. In addition, the GI50 in assay [7], in [8], in assay [9], in assay [10], in assay [11] and in assay [12] was > 100 µM (inactive) in each case. In addition, the GI50 in assay [13], in [14] and in [15] was > 100 µM (inactive) in each case.
Consider `CCOC(=O)/C(=C/c1ccc[nH]1)P(=O)(OCC)OCC`, for which the GI50 was 94.2 µM (inactive) in assay [1]; > 100 µM (inactive) in assay [2]; > 100 µM (inactive) in assay [3]; > 100 µM (inactive) in assay [4]; > 100 µM (inactive) in assay [5]; > 100 µM (inactive) in assay [16]. The GI50 in assay [17], in assay [18], in assay [6], in assay [7], in [19] and in [8] was > 100 µM (inactive) each time. For the same molecule, the GI50 in assay [9], in [10], in assay [11], in [12], in assay [13] and in assay [14] was > 100 µM (inactive) each time. Also, the GI50 in assay [15] is 77.6 µM (inactive).
`COc1ccc(OC)c(/C=C/NC=O)c1`: the GI50 in assay [1], in assay [2], in [3], in [4], in [5] and in [16] was > 100 µM (inactive) throughout. Besides, the GI50 is > 100 µM (inactive) in [17]; > 100 µM (inactive) in assay [18]; > 100 µM (inactive) in [6]; > 71.3 µM (inactive) in [7]; > 100 µM (inactive) in assay [19]; > 100 µM (inactive) in assay [8]. Also, the GI50 in assay [9], in [10], in assay [11], in assay [12], in [13] and in assay [14] was > 100 µM (inactive) throughout. Moreover, in assay [15], the GI50 is > 51.6 µM (inactive).
Consider `C=C1COC(/C=C(\C)CC/C=C(\C)CCl)C1` (stereo not drawn), for which the GI50 in assay [1] was 35.1 µM (inactive); in [2], > 100 µM (inactive); in [3] it was > 100 µM (inactive); in assay [4], > 100 µM (inactive); in assay [5] it was > 100 µM (inactive); in assay [16], > 100 µM (inactive). Moreover, the GI50 in assay [18], in assay [6], in assay [7], in [19], in [8] and in [9] was > 100 µM (inactive) throughout. Moreover, the GI50 in [11], in assay [12], in assay [13], in assay [14] and in assay [15] was > 100 µM (inactive) each time.
With `Cc1ccccc1N1C(=O)C2C=CC(n3[nH]c(=O)n(Cc4ccccc4)c3=O)CC2C1=O` (stereo not drawn), the GI50 in assay [1], in assay [2], in assay [3], in [4], in [5] and in [16] was > 100 µM (inactive) in each case. Besides, the GI50 in assay [17], in assay [18], in assay [6], in assay [7], in assay [19] and in assay [8] was > 100 µM (inactive) each time. Further, the GI50 in assay [9], in assay [10], in [11], in assay [12], in assay [13] and in assay [14] was > 100 µM (inactive) in each case. For the same molecule, the GI50 in [15] was 70 µM (inactive).
`N#CC1(c2nc3ccccc3o2)C(=O)C(=O)N(C2C3CC4CC(C3)CC2C4)C(=O)C1=O` (stereo not drawn): the GI50 was 84.9 µM (inactive) in [1]; 42 µM (inactive) in [2]; > 100 µM (inactive) in [3]; > 100 µM (inactive) in [4]; > 100 µM (inactive) in assay [5]; > 100 µM (inactive) in [16]. The GI50 in assay [17], in assay [18], in [6], in assay [7], in assay [19] and in assay [8] was > 100 µM (inactive) in each case. Besides, the GI50 in assay [9] was > 100 µM (inactive); in assay [10], > 100 µM (inactive); in assay [11], > 100 µM (inactive); in assay [12] it was 26.4 µM (inactive); in assay [13] it was > 100 µM (inactive); in assay [14], > 100 µM (inactive). In assay [15], the GI50 was > 100 µM (inactive).
For `CCOc1ccc(NC(=O)C(=O)CC(=O)c2c(C)[n+]([O-])c3ccccc3[n+]2[O-])cc1`, the GI50 in assay [1], in [2], in assay [3], in assay [4], in assay [5] and in assay [16] was > 100 µM (inactive) throughout. The GI50 in assay [17], in assay [18], in assay [6], in assay [7], in [19] and in assay [8] was > 100 µM (inactive) throughout. The GI50 in [9], in assay [10], in [11], in assay [12], in assay [13] and in [14] was > 100 µM (inactive) in each case. Moreover, the GI50 in [15] was > 100 µM (inactive).
As for `COc1cc(C2C(C(=O)NCc3ccccc3)=C(C)NC(C)=C2C(=O)NCc2ccccc2)ccc1O`, the GI50 is 31.4 µM (inactive) in assay [1]; 25.4 µM (inactive) in assay [2]; 23.6 µM (inactive) in assay [3]; 20.9 µM (inactive) in assay [4]; 65.3 µM (inactive) in assay [5]; 21.5 µM (inactive) in [16]. For the same molecule, the GI50 in assay [17] was 44.1 µM (inactive); in assay [18] it was 57.5 µM (inactive); in assay [6], 29.9 µM (inactive); in assay [19], 29.8 µM (inactive); in [8] it was 30.8 µM (inactive); in [9], 38.3 µM (inactive). Moreover, the GI50 was > 100 µM (inactive) in [10]; 21.8 µM (inactive) in assay [11]; 23 µM (inactive) in [12]; 34.5 µM (inactive) in [13]; 44.9 µM (inactive) in [15].
As to `CCCCCCCC(=O)OCC1OC(n2cc(F)c(=O)[nH]c2=O)C(NC(=O)OCc2ccccc2)C(OC(=O)CCCCCCC)C1O` (stereo not drawn), the GI50 was 23.2 µM (inactive) in assay [1]; 16.5 µM (inactive) in [2]; 35.2 µM (inactive) in [3]; 26.3 µM (inactive) in [4]; 0.106 µM (active) in assay [5]; 29.8 µM (inactive) in [16]. In addition, the GI50 in assay [17] is 39.7 µM (inactive); in [6] it was 0.11 µM (active); in assay [7] it was 26 µM (inactive); in assay [19], 20.6 µM (inactive); in [8] it was 15.6 µM (inactive); in [9], 34 µM (inactive). Moreover, the GI50 in assay [10] is 17.9 µM (inactive); in assay [11], 19.5 µM (inactive); in [12] it was 16.6 µM (inactive); in assay [13], 36.5 µM (inactive); in [14], 71.8 µM (inactive); in [15], 24.5 µM (inactive).
Turning to `CC(C)C(=O)/C=C/c1ccc(Br)cc1`, the GI50 in assay [1] was 16.4 µM (inactive); in assay [2], 10.8 µM (inactive); in assay [3], 17.1 µM (inactive); in assay [4], 21.1 µM (inactive); in assay [5], 16.4 µM (inactive); in [16], 14.7 µM (inactive). Further, the GI50 in assay [17] is 16.5 µM (inactive); in assay [18] it was 14.4 µM (inactive); in assay [6] it was 16 µM (inactive); in [7] it was 23.4 µM (inactive); in assay [19] it was 14.2 µM (inactive); in assay [8], 3.94 µM (inactive). Besides, the GI50 is 23.2 µM (inactive) in assay [9]; 14.5 µM (inactive) in assay [11]; 5.38 µM (inactive) in [12]; 20.1 µM (inactive) in assay [13]; 18.1 µM (inactive) in assay [15].
In the case of `COc1ccc(C2C3C(=O)C=CC(=O)C3[C@@H]2C)cc1OC` (stereo partly drawn), the GI50 in assay [1] is > 100 µM (inactive); in assay [2], > 10 µM (inactive); in assay [3], > 100 µM (inactive); in assay [4] it was > 100 µM (inactive); in assay [5], 73.5 µM (inactive); in assay [16] it was > 100 µM (inactive). For the same molecule, the GI50 in assay [17] was > 100 µM (inactive); in [18], > 100 µM (inactive); in assay [6] it was 12.2 µM (inactive); in assay [7], 78.5 µM (inactive); in assay [19] it was > 100 µM (inactive); in assay [8] it was 62.7 µM (inactive). The GI50 in assay [9] was > 100 µM (inactive); in [10], > 100 µM (inactive); in [11] it was > 100 µM (inactive); in [12], 27.6 µM (inactive); in [13] it was > 100 µM (inactive); in [14], > 100 µM (inactive). In addition, the GI50 in assay [15] was 22.1 µM (inactive).
